Literature values, collected in US20040037835A1, “Cytotoxic agents” (priority 1995, published 2004).

Columns and labels:
CHO cells = conditions: in vitro co-culture of Walker cells and CHO cells
E. coli nitroreductase = E. coli nitroreductase (Escherichia coli, UniProt P38489)
E. coli nitroreductase, sequence (P38489 whole entry): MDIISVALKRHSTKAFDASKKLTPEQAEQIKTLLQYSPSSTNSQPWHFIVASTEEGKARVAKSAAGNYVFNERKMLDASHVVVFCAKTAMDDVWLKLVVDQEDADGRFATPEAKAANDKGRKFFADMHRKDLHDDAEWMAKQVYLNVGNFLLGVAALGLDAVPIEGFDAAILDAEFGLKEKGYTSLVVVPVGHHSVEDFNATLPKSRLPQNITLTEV

For `NC(=O)c1cc(N2CC2)c([N+](=O)[O-])cc1[N+](=O)[O-]` [CB 1954, 5-(aziridin-1-yl)-2,4-dinitrobenzamide], the “bystander effect: kill of CHO cells that do not contain nitroreductase” value (CHO cells) is given as “substantially killed” and the “substrate for the enzyme” value (E. coli nitroreductase) is given as “poor substrate”.
